In ChEMBL document CHEMBL4219165, “Discovery of a novel allosteric inhibitor scaffold for polyadenosine-diphosphate-ribose polymerase 14 (PARP14) macrodomain 2” (Bioorg Med Chem, 2018):

Biological target: Protein mono-ADP-ribosyltransferase PARP14 (Homo sapiens, UniProt Q460N5)
Assay: Displacement of ARTK(Bio)QTARK(Aoa-RADP)S from His6-tagged PARP14 MD2 (A994 to N1191 residues) (unknown origin) expressed in bacterial expression system after 30 mins by AlphaScreen assay

Sequence of Protein mono-ADP-ribosyltransferase PARP14 (Q460N5 whole entry, the tested form may be a part): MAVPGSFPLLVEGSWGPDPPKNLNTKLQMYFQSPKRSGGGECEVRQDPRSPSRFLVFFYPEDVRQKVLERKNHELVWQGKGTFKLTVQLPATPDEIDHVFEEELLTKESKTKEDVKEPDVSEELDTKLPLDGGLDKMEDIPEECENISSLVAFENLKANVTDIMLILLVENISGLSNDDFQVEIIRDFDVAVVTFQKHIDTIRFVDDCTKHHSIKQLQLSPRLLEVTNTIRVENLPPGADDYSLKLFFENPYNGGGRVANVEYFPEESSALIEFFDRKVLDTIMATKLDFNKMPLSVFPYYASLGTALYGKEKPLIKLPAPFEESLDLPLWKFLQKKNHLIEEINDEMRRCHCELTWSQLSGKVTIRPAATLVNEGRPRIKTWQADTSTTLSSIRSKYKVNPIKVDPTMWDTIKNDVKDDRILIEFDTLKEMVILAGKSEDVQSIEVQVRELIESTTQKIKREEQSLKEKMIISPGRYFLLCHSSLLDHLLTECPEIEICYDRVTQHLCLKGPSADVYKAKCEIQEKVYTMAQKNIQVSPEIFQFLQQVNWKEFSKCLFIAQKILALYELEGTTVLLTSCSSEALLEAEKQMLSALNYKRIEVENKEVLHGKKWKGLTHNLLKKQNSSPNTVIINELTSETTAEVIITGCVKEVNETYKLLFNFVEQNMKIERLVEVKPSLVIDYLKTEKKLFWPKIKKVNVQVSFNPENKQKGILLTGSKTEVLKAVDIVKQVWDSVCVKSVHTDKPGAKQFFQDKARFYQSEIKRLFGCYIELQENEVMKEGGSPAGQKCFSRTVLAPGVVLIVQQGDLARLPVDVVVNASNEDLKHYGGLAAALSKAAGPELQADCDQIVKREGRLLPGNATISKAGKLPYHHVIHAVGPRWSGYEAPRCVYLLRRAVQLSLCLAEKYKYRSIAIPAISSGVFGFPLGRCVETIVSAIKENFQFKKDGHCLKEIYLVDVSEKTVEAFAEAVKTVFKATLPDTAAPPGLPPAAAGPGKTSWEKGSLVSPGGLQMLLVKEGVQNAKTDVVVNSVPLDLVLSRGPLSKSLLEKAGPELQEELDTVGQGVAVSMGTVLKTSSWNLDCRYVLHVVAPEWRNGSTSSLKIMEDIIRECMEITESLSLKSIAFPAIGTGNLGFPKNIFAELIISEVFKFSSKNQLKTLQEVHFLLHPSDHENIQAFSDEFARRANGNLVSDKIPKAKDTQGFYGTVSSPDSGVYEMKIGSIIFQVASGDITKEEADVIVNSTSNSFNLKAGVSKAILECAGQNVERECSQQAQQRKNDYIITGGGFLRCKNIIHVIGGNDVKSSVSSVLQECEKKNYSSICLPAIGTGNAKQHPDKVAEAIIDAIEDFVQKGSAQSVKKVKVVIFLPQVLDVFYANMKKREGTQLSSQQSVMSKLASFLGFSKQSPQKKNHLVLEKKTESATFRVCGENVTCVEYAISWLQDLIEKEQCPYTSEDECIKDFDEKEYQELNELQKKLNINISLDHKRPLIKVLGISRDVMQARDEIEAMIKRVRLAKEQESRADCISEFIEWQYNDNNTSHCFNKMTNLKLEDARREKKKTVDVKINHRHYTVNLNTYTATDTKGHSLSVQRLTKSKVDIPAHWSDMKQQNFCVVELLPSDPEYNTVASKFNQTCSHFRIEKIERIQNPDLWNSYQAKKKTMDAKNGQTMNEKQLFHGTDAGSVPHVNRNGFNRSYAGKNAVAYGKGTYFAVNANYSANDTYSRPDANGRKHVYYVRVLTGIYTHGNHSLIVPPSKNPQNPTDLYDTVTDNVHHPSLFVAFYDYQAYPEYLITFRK

Point of comparison: `CC(=O)Nc1ccccc1-c1cccc2c(C(C)C)c[nH]c12`, IC50 18 µM. Against it:
- COc1ccc2[nH]c3c(-c4ccccc4NC(C)=O)cccc3c2c1 — higher, > 50 µM
- CC(=O)Nc1ccccc1-c1cccc2c3c([nH]c12)CCNC3 — higher, > 50 µM
- CC(Nc1ccccc1-c1cccc2c1[nH]c1ccccc12)C(F)(F)F (racemic) — higher, > 50 µM
